The IC50 is the midpoint of a concentration-inhibition curve. For orientation: half-life means the time needed for the level to fall by half in the phase considered. In general, bioavailability refers to the share of a dose that reaches the circulation, judged against a reference dose that is usually intravenous. What is called ED50 is the dose that gives a 50% effect, or the effect in half of the subjects. Usually EC50 stands for the midpoint of the concentration-response curve. Usually AUC stands for the area under the concentration-time curve, a measure of exposure.

These results are taken from ChEMBL document CHEMBL1153224, “Fluorinated piperidine acetic acids as gamma-secretase modulators” (Bioorg Med Chem Lett, 2010).

The target of data set [1] is Gamma-secretase. As to the kind of experiment: Inhibition of gamma secretase in human SHSY5Y cells expressing wild-type APP assessed as inhibition of intracellular amyloid beta-40 by electrochemiluminescent assay. In kind it is cell-based. The settings on record: sh-sy5y.
Data set [2] has as its target Gamma-secretase. As to the kind of experiment: Inhibition of gamma secretase in human SHSY5Y cells expressing wild-type APP assessed as inhibition of intracellular amyloid beta-42 by electrochemiluminescent assay. In kind it is cell-based. The settings on record: sh-sy5y.
A short description of data set [3]: Half life in rat at 1 mg/kg, iv and 2 mg/kg, po. The class given is ADME, organism-based. The settings on record: in vivo.
Data set [4] concerns Brain. As to the kind of experiment: Reduction in amyloid beta 42 level in APP-YAC transgenic mouse brain at 20 mg/kg, po after 7 hrs. In kind it is functional. Further details: scale not given: the % may be the effect or the level left.
A short description of data set [5]: Plasma clearance in rat at 1 mg/kg, iv and 2 mg/kg, po. The class given is ADME, organism-based.
Data set [6] is described as follows: (§1) Oral bioavailability in rat at 2 mg/kg. The settings on record: in vivo. In kind it is ADME, organism-based.
A short description of data set [7]: Volume of distribution at steady state in rat at 1 mg/kg, iv and 2 mg/kg, po. In kind it is ADME, organism-based. The settings on record: in vivo, read-out: Vdss.
The test system of data set [8] is Mus musculus. Kind of data set: (§2) Plasma concentration in APP-YAC transgenic mouse at 10 mg/kg, po after 7 hrs. The class given is ADME, organism-based. Also on record: dose 10 mg/kg, route oral. The settings on record: in vivo, 7 h.
Data set [9] relates to Mus musculus. Kind of data set: (§3) Drug level in APP-YAC transgenic mouse brain at 10 mg/kg, po after 7 hrs. The settings on record: in vivo, 7 h. Also on record: dose 10 mg/kg, route oral. The class given is ADME, organism-based.
The species entered for data set [10] is Rattus norvegicus. Kind of data set: Reduction in amyloid beta 42 level in rat after 7 hrs. The class given is functional, organism-based.
Data set [11] relates to Rattus norvegicus. As to the kind of experiment: Toxicity in rat assessed as notch -related activity at 250 mg/kg, after 7 days. The class given is organism-based. Also on record: dose 250 mg/kg. The settings on record: in vivo, 168 h.
Data set [12] relates to Rattus norvegicus. The description is as §1. In kind it is ADME, organism-based. The settings on record: in vivo.
Data set [13] is described as follows: as §2. The class given is ADME, organism-based. Also on record: dose 10 mg/kg, route oral. The settings on record: APP-YAC transgenic, plasma.
In data set [14] the test system is Brain. Kind of data set: Reduction in amyloid beta 42 level in rat brain after 7 hrs. In kind it is functional, tissue-based.
Data set [15] is described as follows: AUC (0 to 24 hrs) in rat at 250 mg/kg, po after 7 days. In kind it is ADME, organism-based. The settings on record: plasma. Further details: time < 24 hr, dose 250 mg/kg, route oral.
For data set [16], the system named is Plasma. As to the kind of experiment: Reduction in amyloid beta 42 level in rat plasma after 7 hrs. In kind it is functional, cell-free.
The nature of data set [17]: as §3. The class given is ADME, organism-based. Also on record: dose 10 mg/kg, route oral. The settings on record: APP-YAC transgenic, brain, read-out: Drug uptake.

Some results are limits rather than exact numbers.

`CC(C)(C)CC[C@H](CCC(F)(F)F)N1CC[C@@H](CC(=O)O)C(F)(F)[C@H]1c1ccc(C(F)(F)F)cc1`: the IC50 in [1] was above 10000 nM; in data set [2], 490 nM.
The corresponding values for `C[Si](C)(C)CCC(CCC(F)(F)F)N1CCC(F)(F)[C@H](CC(=O)O)[C@H]1c1ccc(C(F)(F)F)cc1` (single isomer, unassigned; enantiomer 2) are above 10000 nM and 640 nM.
Taken in the same sequence, the figures for `CN1CCC(F)(F)[C@H](CC(=O)O)[C@H]1c1ccc(C(F)(F)F)cc1` were above 10000 nM and above 10000 nM.
Consider `CC(C)(C)C#CC(CCC(F)(F)F)N1CCC(F)(F)[C@H](CC(=O)O)[C@H]1c1ccc(C(F)(F)F)cc1` (mixture of isomers), for which the IC50 is above 10000 nM in data set [1] and 800 nM in data set [2].
In data set [3], `C[Si](C)(C)CC[C@H](CCC(F)(F)F)N1CC[C@@H](CC(=O)O)C(F)(F)[C@H]1c1ccc(C(F)(F)F)cc1` had a half-life of 6.4 h. Further, the figures for the 50% inhibitory concentration (IC50) in [1] and in data set [2] were above 10000 nM and 230 nM, respectively. For the same compound, the Activity in data set [4] was -64%. In data set [5], this compound returned a clearance of 9.1 mL/min/kg. Moreover, in data set [6], the bioavailability worked out at 20%. In data set [7], the Vd came out at 5.1 L/kg. The Cp entry in data set [8] is “Not Active”. Further, the Drug uptake result in data set [9] was “Not Active”.
For the compound `CC(C)CC[C@H](c1ccc(C(F)(F)F)cc1)N1CC[C@@H](CC(=O)O)C(F)(F)[C@H]1c1ccc(C(F)(F)F)cc1`, the IC50 is above 10000 nM in data set [1] and 710 nM in data set [2].
On to `CC(C)(C)CCC(CCC(F)(F)F)N1CCC(F)(F)[C@H](CC(=O)O)[C@H]1c1ccc(C(F)(F)F)cc1` (some centres not stated), for which, in data set [3], the half-life was 5.1 h. Also, the IC50 in data set [1] was above 10000 nM; in data set [2], 600 nM; in data set [10], “Dose-dependent effect”. Moreover, the Activity in [4] is listed as -84%; in data set [11], “Non-toxic”. Further, the ED50 in data set [10] (Rattus norvegicus, 7 h) is 5 mg/kg. In [5], this compound returned a clearance of 3.8 mL/min/kg. Further, the F in data set [12] stood at 160%. In addition, the Vd in [7] came out at 1.9 L/kg. The concentration at 7 h amounted to 1100 nM in data set [13] and 580 nM in data set [17]. For the same compound, the values for the EC50 in data set [14] and in data set [16] were 1000 nM and 3700 nM, respectively. In addition, in data set [15], the AUC at 24 h worked out at 2100 µM·h.
As to `CC(C)(C)CCC(CCC(F)(F)F)N1CCC(F)(F)[C@H](CC(=O)O)[C@H]1c1ccc(C(F)(F)F)cc1` (single isomer, unassigned; enantiomer 1), the results for the concentration for half-maximal inhibition (IC50) in [1] and in [2] were above 10000 nM and 1400 nM, respectively.
The corresponding values for `CC(C)(C)C#CC(CCC(F)(F)F)N1CCC(F)(F)[C@H](CC(=O)O)[C@H]1c1ccc(C(F)(F)F)cc1` (single isomer, unassigned; enantiomer 2) are above 10000 nM and 390 nM.
The corresponding values for `CC(C)CCC(CCC(C)C)N1CCC(F)(F)[C@H](CC(=O)O)[C@H]1c1ccc(C(F)(F)F)cc1` are above 10000 nM and 880 nM.
Consider `CC(C)(C)C#CC(CCC(F)(F)F)N1CCC(F)(F)[C@H](CC(=O)O)[C@H]1c1ccc(C(F)(F)F)cc1` (some centres not stated), for which the figures for the IC50 in data set [1] and in data set [2] were above 10000 nM and 1500 nM, respectively.
